19 compounds from patent publication US10519162B2, “6,7-dihydropyrazolo[1,5-α]pyrazin-4(5H)-one compounds and their use as negative allosteric modulators of mGluR2 receptors” (Janssen Pharmaceutica NV, priority 2014, dated 2019) can be followed below.

For one data set, the target named is T1, human mGlu2 receptor (Homo sapiens, UniProt Q14416).
T1 construct: expressed in transfected cells; host or cells: CHO cells
The data set is described as follows: [35S]GTPγS binding assay (mGluR2 negative allosteric modulation, glutamate ~EC80 60 μM). It counts as biochemical. The following applies: for Emax / GTPγS-hmGluR2 anGT Emax: maximal % inhibition relative to the control glutamate response (EC80 glutamate); for Emax: read-out: GTPγS-hmGluR2 anGT Emax; for IC50: membranes from CHO cells transfected with human mGlu2 receptor, glutamate ~EC80 (60 μM), pIC50 = −log IC50 (M), read-out: GTPγS-hmGluR2 anGT pIC50 (converted). The method, then:
1) [^35S]GTPγS Binding Assay
[^35S]GTPγS Binding Assay
Total reaction volume was 200 μl. […] Membrane-bound radioactivity was counted in a Topcount.
A general note: GTPγS is a poorly hydrolysed GTP analogue; its binding reports G protein activation.

The next data set concerns Male Wiga Wistar rats. Description: Reversal of LY-404039-induced decrease of palpebral opening in apomorphine-challenged rats (APO LY-404039). The following applies: for ED50: Rattus norvegicus, PO (oral route), apomorphine challenged rats. It counts as in vivo, rat. The method, then:
B) In Vivo Pharmacology 1) Reversal of LY-404039-Induced Decrease of Palpebral Opening in Apomorphine-Challenged Rats.
Male Wiga Wistar rats (Crl:WI; Charles River Germany; 220±40 g) were housed under standard laboratory conditions (21±2° C.; 50-65% relative humidity; light-dark cycle set at 12 h; lights on at 6.00 h) and fasted overnight prior to the start of the experiments (tap water remained available ad libitum). During the test period, they were housed in individual cages. Palpebral opening was scored every 5 min over the first hour after injection of apomorphine (1.0 mg/kg, i.v.) in animals either pretreated or not pretreated with LY-404039 (2.5 mg/kg, s.c.) at 1 h prior to the apomorphine injection. The animals were also pretreated with test compound or solvent at a predefined interval before apomorphine challenge. The score system was: (5) exophthalmos, (4) wide open, (3) open for three-quarters, (2) half open, (1) open for one-quarter, (0) closed. The scores for palpebral opening were cumulated over the 60-min observation period.
In animals receiving apomorphine alone the median palpebral opening is 43 whereas in animals receiving apomorphine and LY-404039, the median palpebral opening is 17.

In another data set the test system is rats. The data set is described as follows: Reversal of the effect of the mGluR2 PAM JNJ-42153605-induced inhibition of scopolamine-induced hyperlocomotion (SCOP JNJ-42153605). The data set is classed as in vivo, rat. The conditions noted are these: Rattus norvegicus; PO (oral route); rats; reversal criterion total distance >1500 cm. In short, it runs like this: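 Rats got test compound or vehicle 60 min pre-recording, JNJ-42153605 (20 mg/kg, i.v.) 30 min pre-recording, then scopolamine (0.16 mg/kg, i.v.) just before. Total distance over the first 30 min was video-tracked; all-or-none reversal criterion: total distance >1500 cm.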

For another data set, the system named is Wiga rats. The data set is described as follows: Induction of mydriasis (MYD). It counts as in vivo. The conditions noted are these: Rattus norvegicus, PO (oral route), pupil diameter >25 units, 1-3 h post-administration. The method, then: 3) Induction of Mydriasis
The pupil diameter of Wiga rats was measured with a microscopic micrometer (1 unit=1/24 mm). Criteria for drug-induced effects: pupil diameter >25 units for mydriasis (in controls: 1.9%) 1, 2 or 3 h post-administration of the test compound (wherein the maximum pupil diameter over the full 3 h period is reported).

[1] abbreviates: control animals, cumulative score over 60 min.

T1 sequence (Q14416 19-872): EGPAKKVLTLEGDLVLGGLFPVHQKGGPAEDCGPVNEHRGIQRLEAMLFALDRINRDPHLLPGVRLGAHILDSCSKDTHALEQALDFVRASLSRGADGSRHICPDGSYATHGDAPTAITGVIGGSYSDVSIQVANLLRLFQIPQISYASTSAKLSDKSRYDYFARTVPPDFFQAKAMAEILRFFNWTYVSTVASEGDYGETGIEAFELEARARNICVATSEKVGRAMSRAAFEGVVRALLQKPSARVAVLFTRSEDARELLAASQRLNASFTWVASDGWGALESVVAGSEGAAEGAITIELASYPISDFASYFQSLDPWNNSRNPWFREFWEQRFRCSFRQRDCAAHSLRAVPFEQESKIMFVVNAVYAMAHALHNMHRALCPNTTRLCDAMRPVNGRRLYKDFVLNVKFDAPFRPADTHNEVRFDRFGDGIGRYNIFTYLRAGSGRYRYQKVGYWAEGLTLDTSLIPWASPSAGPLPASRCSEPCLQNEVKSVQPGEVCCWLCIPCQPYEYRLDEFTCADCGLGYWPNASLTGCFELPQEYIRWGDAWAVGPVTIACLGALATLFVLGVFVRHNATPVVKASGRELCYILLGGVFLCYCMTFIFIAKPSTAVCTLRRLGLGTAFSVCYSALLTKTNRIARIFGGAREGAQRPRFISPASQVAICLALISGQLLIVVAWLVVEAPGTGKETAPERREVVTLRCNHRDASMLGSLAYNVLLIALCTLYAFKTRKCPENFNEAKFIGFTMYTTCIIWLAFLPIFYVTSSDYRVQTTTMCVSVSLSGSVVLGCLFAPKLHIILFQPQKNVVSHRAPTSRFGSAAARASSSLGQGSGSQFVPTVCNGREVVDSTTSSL

`C[C@H]1CN(c2ccc(C(F)(F)F)c(F)c2)C(=O)c2c(NC(=O)c3ccc(N)nc3)cnn21` [Co. No. 13]: the melting point – broadly, the temperature, or range, at which the solid turns liquid – is 207.25 °C. For the same compound, on human mGlu2 receptor, the Emax (as a rule, the greatest response seen or fitted, relative to the assay's reference) turned out to be 109% and the IC50 was 2.63e-09 M. In addition, the ED50 (commonly the dose that gives a 50% effect, or the effect in half of the subjects) with Male Wiga Wistar rats was found to be 0.2 mg/kg. In addition, in the data set on rats, the ED50 turned out to be 0.32 mg/kg.

In turn, `Cc1cc(C(=O)Nc2cnn3c2C(=O)N(c2ccc(C(F)(F)F)c(Cl)c2)C[C@@H]3C)ccn1` [Co. No. 12] had a melting point of 159.96 °C. On human mGlu2 receptor, the Emax came out at 107% and the IC50 is 2.14e-09 M. Besides, in the data set on Male Wiga Wistar rats, the 50% effective dose (ED50) was 0.42 mg/kg. Moreover, the ED50 in the data set with rats is 0.32 mg/kg. In the data set with Wiga rats, the 50% effect level (ED50) was put at a dose of 21.5 mg/kg.

As to `Cc1cc(C(=O)Nc2cnn3c2C(=O)N(c2ccc(Cl)c(Cl)c2)C[C@@H]3C)cc(C)n1` [Co. No. 106], the melting point worked out at 186.11 °C. On human mGlu2 receptor, the Emax is 108% and the IC50 was 1.07e-09 M. Besides, the ED50 in the data set on Male Wiga Wistar rats was more than 0.63 mg/kg. The 50% effective dose (ED50) in the data set on rats is more than 0.63 mg/kg.

As to `C[C@H]1CN(c2ccc(C(F)(F)F)cc2)C(=O)c2c(NC(=O)c3cccnc3)cnn21` [Co. No. 28], the melting point came to 152.59 °C. Also, on human mGlu2 receptor, the Emax was found to be 107% and the IC50 is 7.59e-09 M. In the data set with Male Wiga Wistar rats, the ED50 amounted to 0.78 mg/kg. Also, the ED50 in the data set with rats worked out at 0.39 mg/kg. The compound also gave a 50% effective dose (ED50) with Wiga rats of 25 mg/kg.

Compound `C[C@H]1CN(c2ccc(C(F)(F)F)c(Cl)c2)C(=O)c2c(NC(=O)c3ccc(N)nc3)cnn21` [Co. No. 1, 6-Amino-N-[(7S)-5-[3-chloro-4-(trifluoromethyl)phenyl]-7-methyl-4-oxo-6,7-dihydropyrazolo[1,5-a]pyrazin-3-yl]pyridine-3-carboxamide] came in with a melting point of 219.62 °C. For the same compound, on human mGlu2 receptor, the Emax is 109% and the IC50 was 1.15e-09 M. Moreover, the ED50 in the data set with Male Wiga Wistar rats is 0.39 mg/kg. Further, the 50% effective dose (ED50) with rats was found to be 0.26 mg/kg. This compound showed an ED50 in the data set with Wiga rats of 14.1 mg/kg.

Compound `COCC1CN(c2ccc(C(F)(F)F)cc2)C(=O)c2c(NC(=O)c3ccc(N)nc3)cnn21` (single isomer, unassigned) [Co. No. 95] yielded a melting point of 225.94 °C. On human mGlu2 receptor, the “GTPγS-hmGluR2 anGT Emax” value is recorded as 114% and the IC50 was 6.31e-09 M. For the same compound, the ED50 in the data set with Male Wiga Wistar rats was more than 2.5 mg/kg. In the data set on rats, the ED50 is 1.26 mg/kg.

`COCC1CN(c2ccc(C(F)(F)F)cc2)C(=O)c2c(NC(=O)c3ccccc3F)cnn21` (single isomer, unassigned) [Co. No. 62a] yielded a melting point of 162.59 °C. Also, on human mGlu2 receptor, the “GTPγS-hmGluR2 anGT Emax” value is listed as 111% and the IC50 is 1.26e-08 M. Besides, in the data set on Male Wiga Wistar rats, the median effective dose (ED50) is more than 2.5 mg/kg. For the same compound, in the data set on rats, the ED50 was more than 2.5 mg/kg.

`Cc1cncc(C(=O)Nc2cnn3c2C(=O)N(c2ccc(C(F)(F)F)c(Cl)c2)C[C@@H]3C)c1` [Co. No. 101, N-[(7S)-5-[3-chloro-4-(trifluoromethyl)phenyl]-7-methyl-4-oxo-6,7-dihydropyrazolo[1,5-a]pyrazin-3-yl]-5-methyl-pyridine-3-carboxamide]: the melting point stood at 160.38 °C. In addition, at human mGlu2 receptor, the Emax came out at 107% and the IC50 was 1.12e-09 M. Further, in the data set with Male Wiga Wistar rats, the ED50 is 0.18 mg/kg. In addition, the median effective dose (ED50) in the data set on rats was more than 0.63 mg/kg. Moreover, in the data set on Wiga rats, the ED50 is 5 mg/kg.

In the case of `Cc1cc(N2C[C@H](C)n3ncc(NC(=O)c4ccc(N)nc4)c3C2=O)ccc1C(F)(F)F` [Co. No. 4], the melting point was found to be 202.24 °C. On human mGlu2 receptor, the Emax came out at 106% and the IC50 was 1.66e-09 M. Besides, in the data set on Male Wiga Wistar rats, the ED50 was 1.26 mg/kg. The ED50 in the data set on rats worked out at 0.5 mg/kg.

In the case of `CN1CCc2cccc3c2[C@H]1Cc1ccc(O)c(O)c1-3` [Apomorphine alone, apomorphine, reference compound], in the data set on Male Wiga Wistar rats (setting [1]), the “Palpebral opening score, occurrence score > 26 (%)” value worked out at 99.5% and the “Palpebral opening score, occurrence score > 34 (%)” value was 95.9%. Besides, in the data set with Male Wiga Wistar rats (control animals, scores cumulated over 60 min after apomorphine 1.0 mg/kg i.v., LY-404039 2.5 mg/kg s.c. 1 h before), the “Palpebral opening score, median score” value turned out to be 43.

For the compound `C[C@H]1CN(c2ccc(OC(F)(F)F)cc2)C(=O)c2c(NC(=O)c3cccnc3N)cnn21` [Co. No. 196], the melting point stood at 188.46 °C. At human mGlu2 receptor, the Emax came out at 109% and the IC50 was 2.63e-09 M. Further, the ED50 with rats was determined as 0.32 mg/kg. The same compound registered an ED50 in the data set on Wiga rats of more than 10 mg/kg.

Consider `C[C@H]1CN(c2ccc(C(F)(F)F)cc2)C(=O)c2c(NC(=O)c3cccnc3N)cnn21` [Co. No. 189], for which the melting point amounted to 214.96 °C. Also, at human mGlu2 receptor, the Emax stood at 109% and the IC50 was 1.82e-09 M. The ED50 in the data set with rats is 0.2 mg/kg. Besides, the ED50 in the data set with Wiga rats was more than 10 mg/kg.

`Cc1cc(N2C[C@H](C)n3ncc(NC(=O)c4cccnc4)c3C2=O)ccc1C(F)(F)F` [Co. No. 145] displayed a melting point of 120.33 °C. On human mGlu2 receptor, the Emax was found to be 105% and the IC50 is 4.57e-09 M. In the data set on Male Wiga Wistar rats, the ED50 is 0.5 mg/kg. In addition, the ED50 in the data set with rats is more than 0.63 mg/kg. The 50% effect level in the data set on Wiga rats (ED50) was put at a dose of 6.6 mg/kg.

In turn, `Cc1cc(C(=O)Nc2cnn3c2C(=O)N(c2ccc(Cl)c(Cl)c2)C[C@@H]3C)ccn1` [Co. No. 171] registered a melting point of 108.41 °C. Further, on human mGlu2 receptor, the Emax stood at 104% and the IC50 was 2.29e-09 M. Moreover, the ED50 with Male Wiga Wistar rats is more than 0.63 mg/kg. Also, the ED50 in the data set with rats is more than 0.63 mg/kg.

`Cc1cc(C(=O)Nc2cnn3c2C(=O)N(c2ccc(C(F)(F)F)cc2)C[C@@H]3C)cc(C)n1` [Co. No. 93] yielded a melting point of 154.26 °C. On human mGlu2 receptor, the Emax stood at 110% and the IC50 is 2.75e-09 M. For the same compound, the ED50 in the data set on Male Wiga Wistar rats is 0.79 mg/kg. In addition, the ED50 in the data set on rats came out at 0.5 mg/kg.

Take `C[C@H]1CN(c2ccc(Cl)c(Cl)c2)C(=O)c2c(NC(=O)c3cnccn3)cnn21` [Co. No. 104]: the melting point turned out to be 201.39 °C. On human mGlu2 receptor, the Emax is 107% and the IC50 was 1.82e-09 M. Further, the ED50 in the data set on rats is 0.32 mg/kg. The same compound gave an ED50 in the data set with Wiga rats of 6.6 mg/kg.

In the case of `C[C@H]1CN(c2ccc(C(F)(F)F)c(Cl)c2)C(=O)c2c(NC(=O)c3cnccn3)cnn21` [Co. No. 176], the melting point is 230.53 °C. Moreover, at human mGlu2 receptor, the Emax was 108% and the IC50 is 1.7e-09 M. For the same compound, the ED50 in the data set with rats turned out to be 0.32 mg/kg. This compound also gave an ED50 in the data set with Wiga rats of more than 10 mg/kg.

Consider `C[C@H]1CN(c2ccc(C(F)(F)F)c(F)c2)C(=O)c2c(NC(=O)c3cccnc3)cnn21` [Co. No. 148], for which the melting point was found to be 166.06 °C. On human mGlu2 receptor, the Emax is 105% and the IC50 is 8.51e-09 M. The ED50 with Male Wiga Wistar rats is more than 0.63 mg/kg. In addition, the ED50 in the data set on rats is more than 0.63 mg/kg.

`Cc1ccncc1C(=O)Nc1cnn2c1C(=O)N(c1ccc(C(F)(F)F)c(Cl)c1)C[C@@H]2C` [Co. No. 120] had a melting point of 145.92 °C. On human mGlu2 receptor, the Emax was 109% and the IC50 was 1.82e-09 M. In addition, the ED50 in the data set on Male Wiga Wistar rats was more than 0.63 mg/kg. For the same compound, in the data set with rats, the ED50 was more than 0.63 mg/kg.
